We go through one compound from patent publication US10682353B2, “Varlitinib for use in the treatment of resistant or refractory cancer” (ASLAN Pharmaceuticals PTE LTD, priority 2015, dated 2020).

What all share (type): in vivo, human
For test [1], the system named is stage IV cholangiocarcinoma EGFR positive (3+) cancer. Briefly: Example 1: Varlitinib 400 mg bi-daily monotherapy in a patient. The settings on record: after treatment cycle 6, Varlitinib 400 mg bi-daily monotherapy.
In test [2] the test system is stage IV, extra-hepatic cholangiocarcinoma. Briefly: Example 2: Varlitinib 400 mg bi-daily combination therapy followed by monotherapy in a patient. As to the method:
A person, stage IV, extra-hepatic cholangiocarcinoma, prior treatment: • Whipple • Radiotherapy • Gemzar/cisplatin for 6 months For the first 6 cycles, the patient received Varlitinib 400 mg BID continuously with cisplatin (80 mg/m^2 every 3 weeks) and capecitabine (1000 mg/m2 BID, 2 weeks on, 1 week off). […] In summary, the patient received varlitinib with chemo for 6 cycles and varlitinib monotherapy for another 4 cycles (3 weeks per cycle).

The subject of test [3] is intrahepatic cholangiocarcinoma, stage IV. Briefly: Example 3: Varlitinib 400 mg bi-daily orally and FOLFOX in a patient (ASLAN001-002SG study). From the text: They received left hemihepatectomy followed by 6 cycles of adjuvant gemcitabine and cisplatin.

Structures are written as SMILES.

Regarding `C[C@@H]1COC(Nc2ccc3ncnc(Nc4ccc(OCc5nccs5)c(Cl)c4)c3c2)=N1` [Varlitinib, (R)—N4-[3-Chloro-4-(thiazol-2-ylmethoxy)-phenyl]-N6-(4-methyl-4,5,-dihydro-oxazol-2-yl)-quinazoline-4,6-diamine], in test [1] (fell from ~900 U/ml), the “tumour marker CA 19-9” value was roughly 250 U/ml. For the same compound, the “liver tumours decreased in size” value in test [1] (one patient progressive after gemcitabine and cisplatin/5-FU) is recorded as “up to 23%”. Moreover, the “reduction in tumour size (tumor scan)” value in test [2] (end of cycle 8, varlitinib monotherapy after 6 cycles of combination with cisplatin and capecitabine) was determined as 87%. Further, in test [2] (end of cycle 10, on varlitinib monotherapy, criterion >20% increase against nadir), the “image scan outcome based on RECIST” value is listed as “disease progression”. The “reduction in tumor size as the best response from baseline” value in test [3] (Varlitinib 400 mg BID with mFOLFOX6 for 9 cycles, then 9 cycles varlitinib monotherapy (2 weeks per cycle), one patient) worked out at 53%. Besides, the “latest tumor assessment (response)” value in test [3] (after cycle 18, 9 cycles Varlitinib 400 mg BID and mFOLFOX6, then 9 cycles varlitinib monotherapy) is given as “partial response”.
